Legend:
Assay in all cases: relative viability (nuclei count vs DMSO), 5 days (fraction); higher = more cells survive
[1] = system: A-427
In short: (§1)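 Lung cancer cell lines were seeded in 1536-well plates and dosed by pin tool the next day, with either a single drug or a fixed anchor-drug dose combined with five library-drug doses (not always all listed) spaced in √10 steps. Five days later, one step fixed the cells and stained their nuclei (final 0.05% Triton X-100, 1% formaldehyde, 1 ug/ml Hoechst), and nuclei were counted on 4× images. Relative viability is the nuclei count in treated wells divided by the count in vehicle wells, and each value is the median of duplicate plates.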

[2] = system: COR-L 105
In short: as §1

[3] = system: H3255
In short: as §1

[4] = system: HCC-44
In short: as §1

[5] = system: HCC-827
In short: as §1

[6] = system: LCLC-103H
In short: as §1

[7] = system: LOU-NH91
In short: as §1

[8] = system: LXF-289
In short: as §1

[9] = system: NCI-H1792
In short: as §1

[10] = system: NCI-H1793
In short: as §1

[11] = system: NCI-H1915
In short: as §1

[12] = system: NCI-H1944
In short: as §1

[13] = system: NCI-H1975
In short: as §1

[14] = system: NCI-H1993
In short: as §1

[15] = system: NCI-H2023
In short: as §1

[16] = system: NCI-H2087
In short: as §1

[17] = system: NCI-H2170
In short: as §1

[18] = system: NCI-H358
In short: as §1

[19] = system: NCI-H520
In short: as §1

[20] = system: SK-MES-1
In short: as §1

[21] = system: SW 1573
In short: as §1

SMILES: Cc1csc(=NC2CCCCC2)n1/N=C/c1ccc(O)c(O)c1O [MIM1] + CS(=O)(=O)N1CCN(Cc2cc3nc(-c4cccc5[nH]ncc45)nc(N4CCOCC4)c3s2)CC1 [Pictilisib] (partner 1 µM)
- relative viability ([1]; first compound 0.2 µM): 0.659
- relative viability ([1]; first compound 0.6325 µM): 0.469
- relative viability ([1]; first compound 2 µM): 0.671
- relative viability ([1]; first compound 6.325 µM): 0.743
- relative viability ([1]; first compound 20 µM): 0.214
- relative viability ([2]; first compound 0.2 µM): 0.424
- relative viability ([2]; first compound 0.6325 µM): 0.366
- relative viability ([2]; first compound 2 µM): 0.344
- relative viability ([2]; first compound 6.325 µM): 0.384
- relative viability ([2]; first compound 20 µM): 0.291
- relative viability ([3]; first compound 0.2 µM): 0.429
- relative viability ([3]; first compound 0.6325 µM): 0.54
- relative viability ([3]; first compound 2 µM): 0.459
- relative viability ([3]; first compound 6.325 µM): 0.478
- relative viability ([3]; first compound 20 µM): 0.416
- relative viability ([4]; first compound 0.2 µM): 0.811
- relative viability ([4]; first compound 0.6325 µM): 0.589
- relative viability ([4]; first compound 2 µM): 0.61
- relative viability ([4]; first compound 6.325 µM): 0.356
- relative viability ([4]; first compound 20 µM): 0.198
- relative viability ([5]; first compound 0.2 µM): 0.985
- relative viability ([5]; first compound 0.6325 µM): 0.936
- relative viability ([5]; first compound 2 µM): 0.947
- relative viability ([5]; first compound 6.325 µM): 0.618
- relative viability ([5]; first compound 20 µM): 0.664
- relative viability ([6]; first compound 0.2 µM): 0.721
- relative viability ([6]; first compound 0.6325 µM): 0.574
- relative viability ([6]; first compound 2 µM): 0.608
- relative viability ([6]; first compound 6.325 µM): 0.631
- relative viability ([6]; first compound 20 µM): 0.59
- relative viability ([7]; first compound 0.2 µM): 0.534
- relative viability ([7]; first compound 0.6325 µM): 0.524
- relative viability ([7]; first compound 2 µM): 0.47
- relative viability ([7]; first compound 6.325 µM): 0.506
- relative viability ([7]; first compound 20 µM): 0.382
- relative viability ([8]; first compound 0.2 µM): 0.757
- relative viability ([8]; first compound 0.6325 µM): 0.689
- relative viability ([8]; first compound 2 µM): 0.823
- relative viability ([8]; first compound 6.325 µM): 0.676
- relative viability ([8]; first compound 20 µM): 0.522
- relative viability ([9]; first compound 0.2 µM): 0.296
- relative viability ([9]; first compound 0.6325 µM): 0.293
- relative viability ([9]; first compound 2 µM): 0.26
- relative viability ([9]; first compound 6.325 µM): 0.252
- relative viability ([9]; first compound 20 µM): 0.221
- relative viability ([10]; first compound 0.2 µM): 0.402
- relative viability ([10]; first compound 0.6325 µM): 0.314
- relative viability ([10]; first compound 2 µM): 0.344
- relative viability ([10]; first compound 6.325 µM): 0.34
- relative viability ([10]; first compound 20 µM): 0.217
- relative viability ([11]; first compound 0.2 µM): 1
- relative viability ([11]; first compound 0.6325 µM): 0.606
- relative viability ([11]; first compound 2 µM): 0.883
- relative viability ([11]; first compound 6.325 µM): 0.708
- relative viability ([11]; first compound 20 µM): 0.477
- relative viability ([12]; first compound 0.2 µM): 0.394
- relative viability ([12]; first compound 0.6325 µM): 0.335
- relative viability ([12]; first compound 2 µM): 0.296
- relative viability ([12]; first compound 6.325 µM): 0.34
- relative viability ([12]; first compound 20 µM): 0.384
- relative viability ([13]; first compound 0.2 µM): 0.275
- relative viability ([13]; first compound 0.6325 µM): 0.312
- relative viability ([13]; first compound 2 µM): 0.251
- relative viability ([13]; first compound 6.325 µM): 0.209
- relative viability ([13]; first compound 20 µM): 0.312
- relative viability ([14]; first compound 0.2 µM): 0.829
- relative viability ([14]; first compound 0.6325 µM): 0.92
- relative viability ([14]; first compound 2 µM): 0.827
- relative viability ([14]; first compound 6.325 µM): 0.776
- relative viability ([14]; first compound 20 µM): 0.764
- relative viability ([15]; first compound 0.2 µM): 0.238
- relative viability ([15]; first compound 0.6325 µM): 0.26
- relative viability ([15]; first compound 2 µM): 0.226
- relative viability ([15]; first compound 6.325 µM): 0.126
- relative viability ([15]; first compound 20 µM): 0.067
- relative viability ([16]; first compound 0.2 µM): 0.959
- relative viability ([16]; first compound 0.6325 µM): 0.588
- relative viability ([16]; first compound 2 µM): 0.969
- relative viability ([16]; first compound 6.325 µM): 0.584
- relative viability ([16]; first compound 20 µM): 0.315
- relative viability ([17]; first compound 0.2 µM): 0.394
- relative viability ([17]; first compound 0.6325 µM): 0.28
- relative viability ([17]; first compound 2 µM): 0.321
- relative viability ([17]; first compound 6.325 µM): 0.272
- relative viability ([17]; first compound 20 µM): 0.238
- relative viability ([18]; first compound 0.2 µM): 0.309
- relative viability ([18]; first compound 0.6325 µM): 0.271
- relative viability ([18]; first compound 2 µM): 0.254
- relative viability ([18]; first compound 6.325 µM): 0.247
- relative viability ([18]; first compound 20 µM): 0.262
- relative viability ([19]; first compound 0.2 µM): 0.302
- relative viability ([19]; first compound 0.6325 µM): 0.287
- relative viability ([19]; first compound 2 µM): 0.295
- relative viability ([19]; first compound 6.325 µM): 0.235
- relative viability ([19]; first compound 20 µM): 0.246
- relative viability ([20]; first compound 0.2 µM): 0.358
- relative viability ([20]; first compound 0.6325 µM): 0.346
- relative viability ([20]; first compound 2 µM): 0.388
- relative viability ([20]; first compound 6.325 µM): 0.283
- relative viability ([20]; first compound 20 µM): 0.252
- relative viability ([21]; first compound 0.2 µM): 0.478
- relative viability ([21]; first compound 0.6325 µM): 0.508
- relative viability ([21]; first compound 2 µM): 0.592
- relative viability ([21]; first compound 6.325 µM): 0.461
- relative viability ([21]; first compound 20 µM): 0.35
